Reference: patent US20250019387A1 (Frontier Medicines Corporation, priority 0001, published 2025)

Molecular target: KRAS G12C and cRAF (Ras-binding domain) interaction (Homo sapiens (Human), UniProt P01116, C118S/C51S/C80L/G12C)
Assay: Inhibition of KRAS G12C and cRAF binding (AlphaScreen)
Details: additional exemplary compounds; KRAS G12C and cRAF binding; read-out: RAF1 RBD IC50
Experimental: Compounds were diluted in 100% DMSO and each compound concentration was spotted at 200 nl/well onto low volume, white 384 well plates. […] Plates were incubated for 19-20 hours. A mixture of RBD and the AlphaScreen streptavidin donor and glutathione acceptor beads diluted in 25 mM Hepes, pH 7.4, 150 mM NaCl, 5 mM MgCl2, 0.01% TritonX-100 and 2% DMSO was then added at 10 ul/well and incubated for 60-90 minutes before the samples were read for emission at 570 nm after excitation of the donor beads at 680 nm. All incubations were performed at room temperature. […] IC50s were determined using nonlinear regression fit of [inhibitor]vs. response (4 parameters). […]

KRAS G12C and cRAF (Ras-binding domain) interaction, sequence (P01116 other isoform, or with tags, fused parts or gaps G12C/C51S/C80L/C118S): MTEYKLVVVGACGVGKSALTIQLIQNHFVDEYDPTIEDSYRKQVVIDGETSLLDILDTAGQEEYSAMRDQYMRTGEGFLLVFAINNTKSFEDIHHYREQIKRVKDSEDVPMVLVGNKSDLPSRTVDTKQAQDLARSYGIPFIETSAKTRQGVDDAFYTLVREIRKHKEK

Row | IC50 [nM] | Compound
1 | 10 to 100 | CN(C)C/C=C/C(=O)N1CC[C@@H](N(C)c2nc(OC[C@@]34CCCN3C[C@H](F)C4)nc3c2CCN(c2cccc4ccc(F)c(Cl)c24)C3)C1
2 | > 500 | C=CC(=O)N1C[C@H](N(C)c2nc(OCC34CCCN3CCC4)nc3c2CCN(c2cccc4cccc(Cl)c24)C3)C[C@H]1C
3 | > 500 | C=CC(=O)N1CCC[C@@H](N(C)c2nc(OCC34CCCN3CCC4)nc3c(F)c(-c4cccc5cccc(Cl)c45)ncc23)C1
4 | > 500 | C=CC(=O)N1CC(N(C)c2nc(OCC34CCCN3CCC4)nc3c2CCN(c2cccc4cccc(Cl)c24)C3)C1
5 | > 500 | C=CC(=O)N1CC(N(C)c2nc(OCC34CCCN3CCC4)nc3c(F)c(-c4cccc5cccc(Cl)c45)ncc23)C1
6 | 100 to 500 | COC/C=C/S(=O)(=O)CCN(C)c1nc(OCC23CCCN2CCC3)nc2c1CCN(c1cccc3cccc(Cl)c13)C2
7 | > 500 | C/C=C/C(=O)CCN(C)c1nc(OC[C@@H]2CCCN2C)nc2c1CCN(c1cccc3ccccc13)C2
8 | > 500 | C=CC(=O)N1CC(N(C)c2nc(OC[C@@]34CCCN3C[C@H](F)C4)nc3c2CCN(c2cccc4cccc(Cl)c24)C3)C1
9 | > 500 | C=CC(=O)C[C@H](C)N(C)c1nc(OC[C@@H]2CCCN2C)nc2c1CCN(c1cccc3ccccc13)C2
10 | 10 to 100 | C=CC(=O)N1CC(CN(C)c2nc(OCC34CCCN3CCC4)nc3c(F)c(-c4cccc5cccc(Cl)c45)ncc23)C1
11 | > 500 | C=CC(=O)[C@H](C)CN(C)c1nc(OC[C@@H]2CCCN2C)nc2c1CCN(c1cccc3ccccc13)C2
12 | > 500 | CN(c1nc(OCC23CCCN2CCC3)nc2c1CCN(c1cccc3cccc(Cl)c13)C2)[C@@H]1CCN(C(=O)/C=C/C2(C)COC2)C1
13 | 10 to 100 | C=CC(=O)[C@@H](C)CN(C)c1nc(OC[C@@H]2CCCN2C)nc2c1CCN(c1cccc3ccccc13)C2
14 | 10 to 100 | CCN(CC)C/C=C/S(=O)(=O)CCN(C)c1nc(OC[C@@H]2CCCN2C)nc2c(F)c(-c3cccc4cccc(Cl)c34)ncc12
15 | > 500 | CCOC/C=C/S(=O)(=O)CCN(C)c1nc(OC[C@@H]2CCCN2C)nc2c(F)c(-c3cccc4cccc(Cl)c34)ncc12
16 | < 10 | CCN(CC)C/C=C/S(=O)(=O)CCN(C)c1nc(OC[C@@]23CCCN2C[C@H](F)C3)nc2c1CCN(c1cccc3cccc(Cl)c13)C2
17 | > 500 | C=CC(=O)N1C[C@H](N(C)c2nc(OCC34CCCN3CCC4)nc3c(F)c(-c4cccc5cccc(Cl)c45)ncc23)C[C@H]1C
18 | > 500 | C=CC(=O)N1CCC[C@@H](N(C)c2nc(OCC34CCCN3CCC4)nc3c2CCN(c2cccc4cccc(Cl)c24)C3)C1
19 | > 500 | C=CC(=O)N1C[C@H](N(C)c2nc(OCC34CCCN3CCC4)nc3c2CCN(c2cccc4cccc(Cl)c24)C3)[C@H]1C
20 | > 500 | C=CC(=O)N1C[C@H](N(C)c2nc(OCC34CCCN3CCC4)nc3c(F)c(-c4cccc5cccc(Cl)c45)ncc23)[C@H]1C
21 | > 500 | CN(CCS(=O)(=O)/C=C/CC1CC1)c1nc(OCC23CCCN2CCC3)nc2c1CCN(c1cccc3cccc(Cl)c13)C2
22 | > 500 | CN(CCS(=O)(=O)/C=C/CC1CC1)c1nc(OC[C@@H]2CCCN2C)nc2c(F)c(-c3cccc4cccc(Cl)c34)ncc12

Row | IC50 [nM] | Compound
23 | > 500 | C=CC(=O)N1CCC(N(C)c2nc(OCC34CCCN3CCC4)nc3c2CCN(c2cccc4cccc(Cl)c24)C3)C1CC#N (centres unmarked)
24 | 100 to 500 | C=CC(=O)N1C[C@H](N(C)c2nc(OCC34CCCN3CCC4)nc3c2CCN(c2cccc4cccc(Cl)c24)C3)CC1C#N (some centres unmarked)
25 | 10 to 100 | C=CC(=O)N1CC[C@@H](N(C)c2nc(OCC34CCCN3CCC4)nc3c(F)c(-c4cccc5ccc(F)c(Cl)c45)ncc23)C1
26 | 10 to 100 | C=CC(=O)N1CC[C@@H](N(C)c2nc(OC[C@@]34CCCN3C[C@H](F)C4)nc3c(F)c(-c4cccc5ccc(F)c(Cl)c45)ncc23)C1
27 | > 500 | C=CC(=O)N1C[C@@H](N(C)c2nc(OCC34CCCN3CCC4)nc3c(F)c(-c4cccc5cccc(Cl)c45)ncc23)C[C@@H]1CC#N
28 | 10 to 100 | CN(C)C/C=C/C(=O)N1CC[C@@H](N(C)c2nc(OC[C@@]34CCCN3C[C@H](F)C4)nc3c(F)c(-c4cccc5ccc(F)c(Cl)c45)ncc23)C1
29 | > 500 | C=CC(=O)N1CC[C@H]2[C@@H]1CCN2c1nc(OCC23CCCN2CCC3)nc2c1CCN(c1cccc3cccc(Cl)c13)C2
30 | > 500 | C=CC(=O)N1CC[C@H]2[C@@H]1CCN2c1nc(OC[C@@]23CCCN2C[C@H](F)C3)nc2c1CCN(c1cccc3cccc(Cl)c13)C2
31 | > 500 | C=CC(=O)N1CC[C@H]2[C@H]1CCN2c1nc(OCC23CCCN2CCC3)nc2c1CCN(c1cccc3cccc(Cl)c13)C2
32 | > 500 | C=CC(=O)N1CC[C@H]2[C@H]1CCN2c1nc(OC[C@@]23CCCN2C[C@H](F)C3)nc2c1CCN(c1cccc3cccc(Cl)c13)C2
33 | 10 to 100 | C=CS(=O)(=O)[C@H]1CC[C@@H](N(C)c2nc(OCC34CCCN3CCC4)nc3c2CCN(c2cccc4cccc(Cl)c24)C3)C1
34 | 10 to 100 | C=CC(=O)CCN(C)c1nc(OCC2CCN2C)nc2c1CCN(c1cccc3cccc(Cl)c13)C2 (centres unmarked)
35 | > 500 | C=CS(=O)(=O)[C@@H]1CC[C@H](N(C)c2nc(OCC34CCCN3CCC4)nc3c2CCN(c2cccc4cccc(Cl)c24)C3)C1
36 | 10 to 100 | CN(c1nc(OCC23CCCN2CCC3)nc2c(F)c(-c3cccc4ccc(F)c(Cl)c34)ncc12)[C@@H]1CCN(C#N)C1
37 | 10 to 100 | CN(C)C/C=C/C(=O)N1CC[C@@H](N(C)c2nc(OC[C@@H]3CCCN3C)nc3c(F)c(-c4cccc5ccc(F)c(Cl)c45)ncc23)C1
38 | 10 to 100 | CN(C)C/C=C/C(=O)N1CC[C@@H](N(C)c2nc(OCC34CCCN3CCC4)nc3c(F)c(-c4cccc5ccc(F)c(Cl)c45)ncc23)C1
39 | 100 to 500 | C=CC(=O)N1C[C@H](N(C)c2nc(OCC34CCCN3CCC4)nc3c2CCN(c2cccc4cccc(Cl)c24)C3)C[C@@H]1C#N
40 | 10 to 100 | C=CC(=O)N1C[C@H](N(C)c2nc(OCC34CCCN3CCC4)nc3c2CCN(c2cccc4cccc(Cl)c24)C3)C[C@H]1C#N
41 | 10 to 100 | C=CC(=O)N1CC(CN(C)c2nc(OC[C@@]34CCCN3C[C@H](F)C4)nc3c(F)c(-c4cccc5ccc(F)c(Cl)c45)ncc23)C1
42 | 100 to 500 | N#CN1CC[C@H]2[C@H]1CCN2c1nc(OC[C@@]23CCCN2C[C@H](F)C3)nc2c(F)c(-c3cccc4cccc(Cl)c34)ncc12
43 | > 500 | N#CN1CC[C@H]2[C@@H]1CCN2c1nc(OC[C@@]23CCCN2C[C@H](F)C3)nc2c(F)c(-c3cccc4cccc(Cl)c34)ncc12
44 | 100 to 500 | CN1CCC[C@H]1COc1nc(N(C)[C@@H]2CCN(C#N)C2)c2cnc(-c3cccc4ccc(F)c(Cl)c34)c(F)c2n1

Row | IC50 [nM] | Compound
45 | 10 to 100 | CN(C)C/C=C/C(=O)N1CC(CN(C)c2nc(OCC34CCCN3CCC4)nc3c(F)c(-c4cccc5ccc(F)c(Cl)c45)ncc23)C1
46 | 10 to 100 | CN(C)C/C=C/S(=O)(=O)C1CCCN(c2nc(OCC34CCCN3CCC4)nc3c2CCN(c2cccc4cccc(Cl)c24)C3)C1 (centres unmarked)
47 | > 500 | C=CC(=O)N1C[C@@H](N(C)c2nc(OC[C@@H]3CCCN3C)nc3c(F)c(-c4cccc5cccc(Cl)c45)ncc23)C[C@@H]1CC#N
48 | 100 to 500 | C=CC(=O)N1CC[C@@H](N(C)c2nc(OC[C@@]34CCCN3C[C@H](F)C4)nc3c2CCN(c2cc(O)cc4ccccc24)C3)C1
49 | > 500 | C=CC(=O)N1CCC(N(c2nc(OCC34CCCN3CCC4)nc3c(F)c(-c4cccc5cccc(Cl)c45)ncc23)C2CC2)C1 (centres unmarked)
50 | 100 to 500 | C=CC(=O)N1CC(CN(C)c2nc(OC[C@]34CCCN3C[C@@H](F)C4)nc3c2CCN(c2cccc4cccc(Cl)c24)C3)C1
51 | 100 to 500 | C=CC(=O)N1CC(CN(C)c2nc(OC[C@]34CCCN3C[C@@H](F)C4)nc3c(F)c(-c4cccc5cccc(Cl)c45)ncc23)C1
52 | 100 to 500 | C=CC(=O)N1CC[C@@H](N(C)c2nc(OC[C@]34CCCN3C[C@@H](F)C4)nc3c(F)c(-c4cccc5cccc(Cl)c45)ncc23)C1
53 | > 500 | C=CC(=O)N1CC[C@@H](N(C)c2nc(OC[C@]34CCCN3C[C@@H](F)C4)nc3c2CCN(c2cccc4cccc(Cl)c24)C3)C1
54 | > 500 | Cc1noc(/C=C/C(=O)N2CCN(c3nc(OC[C@@]45CCCN4C[C@H](F)C5)nc4c3CCN(c3cccc5cccc(Cl)c35)C4)CC2)n1
55 | > 500 | CC(C)c1noc(/C=C/C(=O)N2CCN(c3nc(OCC45CCCN4CCC5)nc4c3CCN(c3cccc5cccc(Cl)c35)C4)CC2)n1
56 | > 500 | CC(C)c1noc(/C=C/C(=O)N2CCN(c3nc(OC[C@@]45CCCN4C[C@H](F)C5)nc4c3CCN(c3cccc5cccc(Cl)c35)C4)CC2)n1
57 | > 500 | C=CC(=O)N1CC[C@@H](N(CC)c2nc(OC[C@@]34CCCN3C[C@H](F)C4)nc3c(F)c(-c4cccc5cccc(Cl)c45)ncc23)C1
58 | > 500 | C=CC(=O)N1CCC(N(c2nc(OCC34CCCN3CCC4)nc3c2CCN(c2cccc4cccc(Cl)c24)C3)C2CC2)C1 (centres unmarked)
59 | > 500 | C=CC(=O)N1CCC(N(c2nc(OC[C@@]34CCCN3C[C@H](F)C4)nc3c2CCN(c2cccc4cccc(Cl)c24)C3)C2CC2)C1 (some centres unmarked)
60 | > 500 | C=CC(=O)N1CCC1CN(C)c1nc(OC[C@@]23CCCN2C[C@H](F)C3)nc2c(F)c(-c3cccc4cccc(Cl)c34)ncc12 (some centres unmarked)
61 | > 500 | C=CC(=O)N1CC(CN(C)c2nc(OC[C@]34CCCN3C[C@H](F)C4)nc3c(F)c(-c4cccc5cccc(Cl)c45)ncc23)C1
62 | 100 to 500 | C=CC(=O)N1CC[C@@H](N(C)c2nc(OC[C@]34CCCN3C[C@H](F)C4)nc3c(F)c(-c4cccc5cccc(Cl)c45)ncc23)C1
63 | 10 to 100 | CN(C)C/C=C/S(=O)(=O)C1CCCN(c2nc(OCC34CCCN3CCC4)nc3c(F)c(-c4cccc5cccc(Cl)c45)ncc23)C1 (centres unmarked)
64 | > 500 | C=CC(=O)N1C[C@@H](N(C)c2nc(OCC34CCCN3CCC4)nc3c2CCN(c2cccc4cccc(Cl)c24)C3)C[C@@H]1CC#N

Row | Compound | IC50 [nM]
65 | C=CC(=O)N1[C@H]2CC[C@@H]1[C@@H](N(C)c1nc(OC[C@@]34CCCN3C[C@H](F)C4)nc3c1CCN(c1cccc4cccc(Cl)c14)C3)C2 | > 500
